Converted amounts (≈) assume the structure as drawn.
Tests used:
[1] = molecular target: Bromodomain-containing protein 4 (Homo sapiens, UniProt O60885, Y390A)
[2] = Distribution coefficient, log D of the compound at pH 7.4 by chromatographic method; assay type: physicochemical; settings: octanol/water
physchem = settings: phosphate buffered saline, pH 7.4, solubility
Description: Solubility of the compound in phosphate buffered saline at pH 7.4 after 1 hr by CLND method

[3] = Permeability across phosphatidyl choline membrane at pH 7.4 after 3 hrs by HPLC with UV detection method; assay type: ADME; settings: not told, read-out: permeability
[4] = molecular target: T1, ATPase family AAA domain-containing protein 2 (Homo sapiens, UniProt Q6PL18)
T1 sequence (Q6PL18 whole entry): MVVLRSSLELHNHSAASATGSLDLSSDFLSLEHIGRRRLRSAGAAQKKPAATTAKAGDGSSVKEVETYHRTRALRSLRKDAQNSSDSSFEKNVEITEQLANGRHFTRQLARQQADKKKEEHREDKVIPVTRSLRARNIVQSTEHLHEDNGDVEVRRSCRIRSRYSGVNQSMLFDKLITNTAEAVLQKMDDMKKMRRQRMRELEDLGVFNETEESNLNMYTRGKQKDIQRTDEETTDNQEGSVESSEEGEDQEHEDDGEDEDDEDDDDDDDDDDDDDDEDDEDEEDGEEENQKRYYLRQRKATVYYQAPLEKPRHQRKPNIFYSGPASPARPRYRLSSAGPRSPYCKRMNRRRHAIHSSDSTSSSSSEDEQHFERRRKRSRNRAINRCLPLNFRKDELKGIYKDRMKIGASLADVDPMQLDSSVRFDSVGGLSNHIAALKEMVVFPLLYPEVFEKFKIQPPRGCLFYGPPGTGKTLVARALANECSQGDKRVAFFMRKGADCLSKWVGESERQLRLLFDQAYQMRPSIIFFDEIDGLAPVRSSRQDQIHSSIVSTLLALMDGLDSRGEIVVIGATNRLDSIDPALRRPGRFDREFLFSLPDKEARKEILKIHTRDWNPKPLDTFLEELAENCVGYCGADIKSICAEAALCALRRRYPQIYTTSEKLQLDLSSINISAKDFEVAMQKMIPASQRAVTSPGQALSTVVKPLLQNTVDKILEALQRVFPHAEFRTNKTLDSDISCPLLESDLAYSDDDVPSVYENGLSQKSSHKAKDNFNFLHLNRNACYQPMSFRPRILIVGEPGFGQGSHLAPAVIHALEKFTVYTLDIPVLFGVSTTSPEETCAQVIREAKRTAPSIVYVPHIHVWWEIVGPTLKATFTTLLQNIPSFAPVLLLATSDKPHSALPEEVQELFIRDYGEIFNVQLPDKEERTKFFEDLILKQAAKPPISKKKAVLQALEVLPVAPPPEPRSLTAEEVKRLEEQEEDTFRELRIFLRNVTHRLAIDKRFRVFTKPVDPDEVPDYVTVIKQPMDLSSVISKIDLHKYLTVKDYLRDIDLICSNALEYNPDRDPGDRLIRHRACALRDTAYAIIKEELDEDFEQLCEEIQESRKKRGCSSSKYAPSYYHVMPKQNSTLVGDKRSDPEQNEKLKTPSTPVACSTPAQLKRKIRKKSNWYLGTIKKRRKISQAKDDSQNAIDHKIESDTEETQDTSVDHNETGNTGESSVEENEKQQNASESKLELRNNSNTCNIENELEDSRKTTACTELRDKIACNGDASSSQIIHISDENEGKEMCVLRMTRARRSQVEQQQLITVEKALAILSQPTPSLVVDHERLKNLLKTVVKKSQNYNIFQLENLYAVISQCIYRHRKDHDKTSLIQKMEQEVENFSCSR
Description: Displacement of histone H4 peptide from FLAG-6His-Tev-ATAD2 (981 to 1121) (unknown origin) expressed in Escherichia coli BL21 (DE3) after 30 mins by TR-FRET analysis relative to control

Row | IC50 [1] | chromatographic logD [2] | solubility kinetic at 1 h (physchem) | Papp at 3 h [3] | logD [2] | IC50 [4] | SMILES
1 | 12.6 µM | 3.3 | 140 µM (≈ 51.9 µg/mL) | – | – | – | Cc1cc2ccnc(N[C@H]3CCNC[C@@H]3OCC3CCCCC3)c2[nH]c1=O
2 | 3.98 µM | – | – | 13 ×10⁻⁶ cm/s | – | – | Cc1cc2ccnc(N[C@@H]3CCNC[C@H]3OCC3CCCCC3)c2[nH]c1=O
3 | – | 4.2 | 196 µM (≈ 90.5 µg/mL) | – | – | – | Cc1cncc(-c2cnc(N[C@H]3CCNC[C@@H]3OCC3CCCCC3)c3[nH]c(=O)c(C)cc23)c1
4 | – | 2.2 | 494 µM (≈ 229 µg/mL) | – | – | – | Cc1cc2c(-c3cncc(N)c3)cnc(N[C@@H]3CCNC[C@H]3OCC3CCCCC3)c2[nH]c1=O
5 | – | – | – | < 1 ×10⁻⁶ cm/s | 1.5 | – | Cc1cc2ccnc(N[C@@H]3CCNC[C@H]3OCC3CCOCC3)c2[nH]c1=O
6 | 12.6 µM | 1.5 | ≥ 352 µM | – | – | – | Cc1cc2ccnc(N[C@H]3CCNC[C@@H]3OCC3CCOCC3)c2[nH]c1=O
7 | 12.6 µM | – | – | < 0.65 ×10⁻⁶ cm/s | – | – | Cc1cc2ccnc(N[C@@H]3CCNC[C@H]3OCC3CCS(=O)(=O)CC3)c2[nH]c1=O
8 | 5.01 µM | 1.1 | ≥ 531 µM | – | – | – | Cc1cc2ccnc(N[C@H]3CCNC[C@@H]3OCC3CCS(=O)(=O)CC3)c2[nH]c1=O
9 | 6.31 µM | 0.9 | ≥ 306 µM | – | – | 10 µM | CO[C@@H]1CNCC[C@H]1Nc1nccc2cc(C)c(=O)[nH]c12
10 | 25.1 µM | 1.5 | ≥ 327 µM | – | – | – | Cc1cc2ccnc(N[C@@H]3CCNC[C@H]3OCCC3CCOCC3)c2[nH]c1=O (racemic)
11 | 5.01 µM | 3.3 | 285 µM (≈ 106 µg/mL) | – | – | – | Cc1cc2ccnc(N[C@@H]3CCNC[C@H]3OCC3CCCCC3)c2[nH]c1=O (racemic)
12 | 10 µM | 1.2 | ≥ 392 µM | – | – | 7.94 µM | CC(=O)N1CCC(CO[C@@H]2CNCC[C@H]2Nc2nccc3cc(C)c(=O)[nH]c23)CC1 (racemic)
13 | 12.6 µM | 0.7 | ≥ 323 µM | – | – | 5.01 µM | Cc1cc2ccnc(N[C@@H]3CCNC[C@H]3OC[C@H]3CC[C@H](O)CC3)c2[nH]c1=O (racemic)
14 | 10 µM | 1.7 | 298 µM (≈ 111 µg/mL) | – | – | – | Cc1cc2ccnc(N[C@@H]3CCNC[C@H]3OCC3CCOCC3)c2[nH]c1=O (racemic)
15 | 6.31 µM | 1 | ≥ 309 µM | – | – | – | Cc1cc2ccnc(N[C@@H]3CCNC[C@H]3OCC3CCS(=O)(=O)CC3)c2[nH]c1=O (racemic)
16 | 12.6 µM | 1 | ≥ 328 µM | – | – | 5.01 µM | Cc1cc2ccnc(N[C@@H]3CCNC[C@H]3OC[C@@H]3CCS(=O)(=O)C3)c2[nH]c1=O (racemic)
17 | 25.1 µM | 1.8 | 207 µM (≈ 65.5 µg/mL) | – | – | 63.1 µM | Cc1cc2ccnc(N[C@@H]3CCNC[C@H]3OC(C)C)c2[nH]c1=O (racemic)
18 | 6.31 µM | 1.8 | ≥ 280 µM | – | – | 25.1 µM | CCCO[C@@H]1CNCC[C@H]1Nc1nccc2cc(C)c(=O)[nH]c12 (racemic)
19 | 6.31 µM | 2.3 | ≥ 290 µM | – | – | – | Cc1cc2ccnc(N[C@@H]3CCNC[C@H]3OCC(C)C)c2[nH]c1=O (racemic)
20 | 10 µM | 3.1 | ≥ 275 µM | – | – | 7.94 µM | Cc1cc2ccnc(N[C@@H]3CCNC[C@H]3OCC3CCCC3)c2[nH]c1=O (racemic)
21 | 5.01 µM | 4 | ≥ 316 µM | – | – | 2 µM | Cc1cc2ccnc(N[C@@H]3CCNC[C@H]3OCC3CCCCCC3)c2[nH]c1=O (racemic)
22 | – | – | 217 µM (≈ 111 µg/mL) | < 0.3 ×10⁻⁶ cm/s | – | – | Cc1cncc(-c2ccc(N[C@@H]3CCNC[C@H]3OCC3CCS(=O)(=O)CC3)c3[nH]c(=O)c(C)cc23)c1 (racemic)

— ChEMBL document CHEMBL3588744, “Structure-Based Optimization of Naphthyridones into Potent ATAD2 Bromodomain Inhibitors” (J Med Chem, 2015)
